According to patent US8633184B2, “Benzoazepin-oxy-acetic acid derivatives as PPAR-delta agonists used for the increase of HDL-C, lower LDL-C and lower cholesterol” (Janssen Pharmaceutica N.V., priority 2006, dated 2014):
Where “and” joins values, the source holds several entries; their conditions need not be identical. Equal entries are not always repeated.

What was measured:
Type in all cases: cell-based
Settings in all cases: 18-24 hrs
[1] = molecular target: T1, PPARα (Homo sapiens, UniProt Q07869); assay: Transfection assay, GAL4-PPARα LBD luciferase reporter in HEK293 cells
T1 construct: expressed in transfected cells; host or cells: HEK293
T1 sequence (Q07869 239-466 limits assumed): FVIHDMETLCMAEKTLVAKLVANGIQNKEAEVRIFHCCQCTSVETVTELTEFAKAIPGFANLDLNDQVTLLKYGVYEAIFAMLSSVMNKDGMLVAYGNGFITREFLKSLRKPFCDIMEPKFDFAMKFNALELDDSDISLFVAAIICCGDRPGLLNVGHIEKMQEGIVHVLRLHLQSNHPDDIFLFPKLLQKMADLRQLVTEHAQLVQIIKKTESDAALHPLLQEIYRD
Description: (§1) HEK293 cells were grown in DMEM/F12 medium supplemented with 10% FBS and glutamine (Invitrogen) and incubated in a 5% CO2 incubator at 37° C. The cells were co-transfected using DMRIE-C reagent (Invitrogen) in serum free medium (Opti-MEM, Invitrogen) with two mammalian expression plasmids, one containing the DNA sequence coding for the ligand binding domains of either PPARα, γ or δ fused to the yeast GAL4 DNA binding domain and the other containing the promoter sequence of the yeast GAL4 (UAS) fused to the firefly luciferase cDNA reporter. The next day, the medium was changed to DMEM/F12 medium supplemented with 5% charcoal treated serum (Hyclone) and glutamine. After 6 hrs the cells were trypsinized and seeded at a density of 50,000 cells/well into 96 well plates and incubated overnight as above. The cells were then treated with test compounds or vehicle and incubated for 18-24 hrs as above. Luciferase reporter activity was measured using the Steady-Glo Luciferase Assay Kit from Promega. DMRIE-C Reagent was purchased from GIBCO Cat. No. 10459-014. OPTI-MEM I Reduced Serum Medium was purchased from GIBCO (Cat. No. 31985). Steady-Glo Luciferase Assay Kit was purchased from Promega (Part #E254B).
(§2) A variety of example compounds have been made and tested, with a range of in vitro results. Below, in Table 2, are representative compounds and data; in some cases, where multiple EC50's are shown, multiple measurements were taken. Naturally, different compounds in Formula (I) may have not activities identical to any one compound below.

[2] = molecular target: T2, PPARγ (Homo sapiens, UniProt P37231); assay: Transfection assay, GAL4-PPARγ LBD luciferase reporter in HEK293 cells
T2 construct: expressed in transfected cells; host or cells: HEK293
T2 sequence (P37231 238-503 limits assumed): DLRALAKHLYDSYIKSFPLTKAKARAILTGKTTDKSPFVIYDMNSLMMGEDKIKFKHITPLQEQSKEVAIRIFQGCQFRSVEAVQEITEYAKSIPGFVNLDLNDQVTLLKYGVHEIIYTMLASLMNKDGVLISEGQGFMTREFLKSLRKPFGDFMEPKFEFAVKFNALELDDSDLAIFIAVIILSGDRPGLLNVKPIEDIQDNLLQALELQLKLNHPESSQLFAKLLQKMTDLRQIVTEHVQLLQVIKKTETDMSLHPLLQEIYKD
Description: as §1, §2

[3] = molecular target: T3, PPARδ (Homo sapiens, UniProt Q03181); assay: Transfection assay, GAL4-PPARδ LBD luciferase reporter in HEK293 cells
T3 construct: expressed in transfected cells; host or cells: HEK293
T3 sequence (Q03181 211-439 limits assumed): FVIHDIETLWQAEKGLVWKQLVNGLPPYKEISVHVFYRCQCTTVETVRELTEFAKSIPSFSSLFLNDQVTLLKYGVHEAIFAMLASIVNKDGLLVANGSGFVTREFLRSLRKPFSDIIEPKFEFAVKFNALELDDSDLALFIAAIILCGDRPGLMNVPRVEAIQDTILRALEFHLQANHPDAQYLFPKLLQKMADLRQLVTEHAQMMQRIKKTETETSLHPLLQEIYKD
Description: as §1, §2

SMILES | EC50 [1] [nM] | EC50 [2] [nM] | EC50 [3]
CC(C)(Oc1ccc2c(c1)CCN(Cc1ccc(-c3ccc(C(F)(F)F)cc3)s1)CC2)C(=O)O [compound 8] | > 1000 | > 3000 | 85.9 nM and 123 nM
Cc1nc(-c2ccc(C(F)(F)F)cc2)oc1CN1CCc2ccc(OC(C)(C)C(=O)O)cc2CC1 [compound 19] | > 3000 | > 3000 | 231 nM
Cc1nc(-c2ccc(C(F)(F)F)cc2)oc1CN1CCc2ccc(OCC(=O)O)cc2CC1 [compound 18] | > 3000 | > 3000 | 174 nM
O=C(O)COc1ccc2c(c1)CCN(Cc1ccc(-c3ccc(C(F)(F)F)cc3)o1)CC2 [compound 9] | > 3000 | > 3000 | 74.2 nM and 70.9 nM
CC(C)(Oc1ccc2c(c1)CCN(Cc1ccc(-c3ccc(C(F)(F)F)cc3)o1)CC2)C(=O)O [compound 10] | > 3000 | > 3000 | 53 nM and 87.7 nM
O=C(O)COc1ccc2c(c1)CCN(Cc1cnc(-c3ccc(C(F)(F)F)cc3)s1)CC2 [compound 24] | > 1000 | > 3000 | 27.1 nM and 22 nM
CC(C)(Oc1ccc2c(c1)CCN(Cc1cnn(-c3ccc(C(F)(F)F)cc3)c1)CC2)C(=O)O [compound 21] | > 3000 | > 3000 | 422 nM
CC1CN(Cc2ccc(-c3ccc(C(F)(F)F)cc3)o2)CCc2ccc(OCC(=O)O)cc21 (stereo not drawn) [compound 26] | > 3000 | > 3000 | 15.8 nM
O=C(O)COc1ccc2c(c1)CCN(Cc1csc(-c3ccc(C(F)(F)F)cc3)n1)CC2 [compound 17] | > 3000 | > 3000 | 439 nM
CC(c1ccc(-c2ccc(C(F)(F)F)cc2)o1)N1CCc2ccc(OCC(=O)O)cc2CC1 (single isomer, unassigned) [28a] | > 3000 | > 3000 | 1.8 nM
CC(c1ccc(-c2ccc(C(F)(F)F)cc2)o1)N1CCc2ccc(OCC(=O)O)cc2CC1 (single isomer, unassigned) [28b] | > 3000 | > 3000 | 5.4 nM and 9.8 nM
CC1CN(Cc2ccc(-c3ccc(C(F)(F)F)cc3)s2)CCc2ccc(OCC(=O)O)cc21 (stereo not drawn) [compound 25] | > 1000 | > 3000 | 11 nM and 10.8 nM
Cc1nc(-c2ccc(C(F)(F)F)cc2)sc1CN1CCc2ccc(OC(C)(C)C(=O)O)cc2CC1 [compound 6] | > 1000 | > 3000 | 243 nM
Cc1c(-c2ccc(C(F)(F)F)cc2)csc1CN1CCc2ccc(OC(C)(C)C(=O)O)cc2CC1 [compound 16] | > 3000 | > 3000 | 375 nM
CC(c1ccc(-c2ccc(C(F)(F)F)cc2)s1)N1CCc2ccc(OCC(=O)O)cc2CC1 (racemic) [compound 27] | > 3000 | > 3000 | < 3 nM and 1.4 nM
O=C(O)COc1ccc2c(c1)CCN(Cc1cc(-c3ccc(C(F)(F)F)cc3)cs1)CC2 [compound 23] | > 3000 | > 3000 | 109 nM and 70.2 nM
CC(c1ccc(-c2ccc(C(F)(F)F)cc2)s1)N1CCc2ccc(OCC(=O)O)cc2CC1 (single isomer, unassigned) [27b] | > 3000 | > 3000 | 12.6 nM and 13.9 nM

More lines, now with the values ahead:

EC50 [1] [nM] | EC50 [2] [nM] | EC50 [3] | SMILES
> 3000 | 622 | < 3 nM | CC(c1cnc(-c2ccc(C(F)(F)F)cc2)s1)N1CCc2ccc(OCC(=O)O)cc2CC1 (stereo not drawn) [compound 29]
> 3000 | > 3000 | > 1000 nM | O=C(O)COc1ccc2c(c1)CCN(CCc1ccc(-c3ccc(C(F)(F)F)cc3)o1)CC2 [compound 45]
> 3000 | > 3000 | > 3000 nM | O=C(O)COc1ccc2c(c1)CCN(Cc1cccc(-c3ccc(C(F)(F)F)cc3)c1)CC2 [compound 47]
> 3000 | > 3000 | > 1000 nM | O=C(O)COc1ccc2c(c1)CCN(Cc1cncc(-c3ccc(C(F)(F)F)cc3)n1)CC2 [compound 42]
> 3000 | > 3000 | 237 nM | O=C(O)COc1ccc2c(c1)CCN(Cc1ccc(-c3ccc(Cl)cc3Cl)s1)CC2 [compound 31]
> 1000 | > 3000 | 312 nM | O=C(O)COc1ccc2c(c1)CCN(Cc1ccc(-c3ccc(C(F)(F)F)cc3)nc1)CC2 [compound 46]
> 3000 | > 3000 | 29.2 nM | Cc1cc(-c2ccc(C(F)(F)F)cc2)oc1CN1CCc2ccc(OCC(=O)O)cc2CC1 [compound 36]
> 3000 | > 3000 | > 1000 nM | COc1ccc(-c2ccc(CN3CCc4ccc(OCC(=O)O)cc4CC3)o2)cc1 [compound 44]
> 3000 | > 3000 | 0.9 nM | CCC(c1ccc(-c2ccc(C(F)(F)F)cc2)s1)N1CCc2ccc(OCC(=O)O)cc2CC1 (stereo not drawn) [compound 30]
> 3000 | > 3000 | 157 nM | O=C(O)COc1ccc2c(c1)CCN(Cc1ccc(-c3ccc(OC(F)(F)F)cc3)s1)CC2 [compound 32]
> 1000 | > 1000 | 12 nM | O=C(O)C1(Oc2ccc3c(c2)CCN(Cc2cnc(-c4ccc(C(F)(F)F)cc4)s2)CC3)CC1 [compound 39]
